Measured values as given in PubChem BioAssay (NCI).
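Each compound was tested at five concentrations against cells in 96-well plates for 48 hours. GI50: concentration for 50% inhibition of growth. The concentration for full growth arrest is given as TGI.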

Experiments:
Assay in all cases: DTP human tumour cell line panel, 48 h
DLD-1 colon = tested on: DLD-1 colon
DMS 114 small cell lung = tested on: DMS 114 small cell lung
HOP-18 NSCLC = tested on: HOP-18 NSCLC
LXFL 529 NSCLC = tested on: LXFL 529 NSCLC
RXF-631 renal = tested on: RXF-631 renal
BT-549 breast = tested on: BT-549 breast
KM20L2 colon = tested on: KM20L2 colon
MDA-N = tested on: MDA-N
SNB-78 CNS = tested on: SNB-78 CNS

Structure (SMILES)	TGI (DLD-1 colon) [µM]	TGI (DMS 114 small cell lung) [µM]	TGI (LXFL 529 NSCLC) [µM]	GI50 (BT-549 breast) [µM]	TGI (BT-549 breast) [µM]	TGI (KM20L2 colon) [µM]	TGI (SNB-78 CNS) [µM]	also measured
COc1ccc(C2=NN(C(C)=O)c3nc4ccccc4nc3O2)cc1	88	> 100	> 100	–	–	–	–	TGI (HOP-18 NSCLC): 88.9 µM; TGI (RXF-631 renal): > 100 µM
COc1ccc(OC)c(-c2cc(-c3ccc(Cl)cc3)nn2-c2ccccc2)c1	–	–	–	28.8	84.4	–	–	–
COc1cc(/C=C2\C[C@H]3[C@@H]4CC=C5C[C@@H](O)CC[C@]5(C)[C@H]4CC[C@]3(C)[C@H]2O)ccc1OCCN1CCCCC1	–	–	–	1.18	2.49	–	–	–
C/C(=N\N)C(CN1CCOCC1)C(c1ccccc1)c1c(O)c2ccccc2oc1=O (configuration not stated)	> 100	> 100	> 100	–	> 100	> 100	> 100	TGI (MDA-N): > 100 µM
CC(C)(C)c1cc[n+](C[n+]2ccc(C(C)(C)C)cc2)cc1	–	–	–	–	–	–	–	TGI (MDA-N): > 100 µM
COc1nc(NC2OC(COC(C)=O)C(OC(C)=O)C(OC(C)=O)C2OC(C)=O)c(N=C(C)C(C)=O)c(=O)n1C (configuration not stated)	> 100	> 100	> 100	–	–	> 100	> 100	TGI (HOP-18 NSCLC): > 100 µM
CC1(C)CC[C@]2(C(=O)NCCNCCN)CC[C@]3(C)C(=CC[C@@H]4[C@@]5(C)CCC(=O)C(C)(C)[C@@H]5CC[C@]43C)[C@@H]2C1	–	–	–	1.56	3.26	–	–	–
CCCCNC(=O)Oc1ccc(/C(=C(\C)c2ccc(OC)cc2)c2ccc(OCCN3CCCCC3)cc2)cc1	–	–	–	1.48	2.89	–	–	–
Oc1ccc(Br)cc1C=NC1CCCCC1	–	–	–	–	> 100	–	–	TGI (MDA-N): > 100 µM
Cn1c(=O)nc2n(-c3ccc(F)c(F)c3)c3ccccc3nc-2c1=O	85.3	18	64.9	–	–	23.8	54.6	TGI (HOP-18 NSCLC): 97.7 µM; TGI (RXF-631 renal): 62.4 µM
Cc1cccc2c(=O)c3c(sc12)c(NCCCN)nc1ccccc13	–	–	–	2.6	12.6	–	–	–
CN1CCN(c2ccncc2S(=O)(=O)N2CCN(C)CC2)CC1	–	–	–	–	> 100	–	–	TGI (MDA-N): > 100 µM
CSc1ccc(Cc2cc(C(C)(C)C)cc(C(C)(C)C)c2O)cc1	27.1	25.7	26.9	–	–	28.2	28.8	TGI (HOP-18 NSCLC): 33.8 µM; TGI (RXF-631 renal): 29.4 µM
Cc1ccccc1SC(/C=C/NNC1=NC(c2ccccc2)C(c2ccccc2)=NN1)c1ccccc1 (configuration not stated)	> 100	78.4	–	–	–	> 100	73.9	–
O=[N+]([O-])c1cc(I)cc(/C=N/NS(=O)(=O)c2ccc(F)cc2)c1O	> 100	52.2	43.1	–	–	> 100	69	TGI (HOP-18 NSCLC): 53.2 µM; TGI (RXF-631 renal): 57.9 µM
C#Cc1cccc(Nc2nc(C)nc3cc(NC(=O)CCl)ccc23)c1	–	–	–	1.32	5.31	–	–	–
CON1C(=O)C2(CCCCC2)C(=O)C12C=CC(C)CC2 (configuration not stated)	–	> 100	> 100	–	–	> 100	> 100	TGI (RXF-631 renal): > 100 µM
COc1ccc2cc(C(=O)N3CCC([C@@H](C)C(=O)NCc4ccc5c(c4)OCO5)CC3)[nH]c2c1	–	–	–	43.7	> 100	–	–	–

Structure (SMILES)	TGI (DLD-1 colon) [µM]	TGI (DMS 114 small cell lung) [µM]	TGI (LXFL 529 NSCLC) [µM]	GI50 (BT-549 breast) [µM]	TGI (BT-549 breast) [µM]	TGI (KM20L2 colon) [µM]	TGI (SNB-78 CNS) [µM]	also measured
CC1CCCc2c1n[nH]c2CC1CC(=O)NC(=O)C1 (configuration not stated)	> 100	> 100	> 100	–	–	> 100	> 100	TGI (HOP-18 NSCLC): > 100 µM; TGI (RXF-631 renal): > 100 µM
COc1cc(OCCCN2CCCC2)ccc1Nc1ncc(Cl)c(Nc2ccccc2P(C)(C)=O)n1	–	–	–	3.86	11.7	–	–	–
CCCCCCCC(=O)Nc1nc2[nH]c(CN3CCN(Cc4cccc(I)c4)CC3)c(CN3CCN(Cc4cccc(I)c4)CC3)c2c(=O)[nH]1	–	–	–	0.885	1.83	–	–	–
N[C@@H](Cc1c[nH]c2ccccc12)C(=O)NC1CCN(Cc2c[nH]c3ccc(Cl)cc23)CC1	–	–	–	16	34.4	–	–	–
Cn1cnc(SC2=CC(=O)C=C3S[C@H]4C[C@@]23c2c(c(O)c3c5c2=NCCC=5C=N3)N4)c1CC(N)C(=O)O (some centres not stated)	26.3	4.31	–	–	–	11.6	38.4	GI50 (DLD-1 colon): 12.6 µM; TGI (HOP-18 NSCLC): 30.7 µM; GI50 (KM20L2 colon): 2.48 µM; GI50 (MDA-N): 2 µM; TGI (MDA-N): 3.63 µM; GI50 (SNB-78 CNS): 15.3 µM
Nc1ccc(C(=O)CC2(O)C(=O)Nc3ccccc32)cc1 (configuration not stated)	> 100	> 100	> 100	–	–	> 100	> 100	–
COc1cccc(/C=C2\N=C(Cl)OC2=O)c1O	> 100	> 100	> 100	–	–	> 100	> 100	TGI (HOP-18 NSCLC): > 100 µM
CC(=O)N(N=O)c1ccc(N(N=O)C(C)=O)cc1	> 100	> 100	> 100	–	–	> 100	> 100	–
CC(=O)NNc1ncc(C(=O)/C=C/c2ccccc2C)s1	> 100	> 100	–	–	–	> 100	> 100	TGI (HOP-18 NSCLC): > 100 µM; TGI (RXF-631 renal): > 100 µM
COC(=O)C(/C(=N/N)C(=O)Nc1cc(Cl)ccc1Cl)c1nc2ccc([N+](=O)[O-])cc2[nH]c1=O (configuration not stated)	–	> 100	> 100	–	–	> 100	> 100	–
CO[C@H]1/C=C/O[C@@]2(C)Oc3c(C)c(O)c4c(O)c(c(/C=N/N5C(C)CN(Cc6ccc(C#N)cc6)CC5C)c(O)c4c3C2=O)NC(=O)/C(C)=C\C=C\[C@H](C)[C@H](O)[C@@H](C)[C@@H](O)[C@@H](C)[C@H](OC(C)=O)[C@@H]1C (some centres not stated)	–	–	–	8.85	23.5	–	–	–
C[C@]12CC[C@@H]3c4ccc(O)cc4CC[C@H]3[C@@H]1CC(Cc1ccccc1)(Cc1ccccc1)C2=O	–	–	–	18.8	38.7	–	–	–
NC(=O)c1ccc(I)c([N+](=O)[O-])c1	–	–	–	> 100	> 100	–	–	–
COc1cccc(C2SC(C)C(=O)N2NC(=O)C(O)c2ccccc2)c1 (configuration not stated)	–	–	–	> 100	> 100	–	–	–
COc1ccc(NC(=O)c2ccc(C(F)(F)F)nc2Nc2ccc(Cl)cc2C)cc1Cl	–	–	–	4.88	18.6	–	–	–
Cn1nc(-c2ccccc2)c2c(/C=C/c3ccc(F)cc3)onc2c1=O	> 100	–	> 100	–	–	> 100	–	TGI (HOP-18 NSCLC): > 100 µM
CN1C(c2ccccc2)CC(=NO)CC1c1ccccc1 (configuration not stated)	> 100	> 100	> 100	–	–	> 100	> 100	GI50 (MDA-N): 76 µM; TGI (RXF-631 renal): > 100 µM
